Patent US20240011018A1, “MULTIPLEXED METHOD FOR ASSESSING GLOBAL OR GENOMIC LOCUS-SPECIFIC LEVELS OF CHROMATIN MODIFICATION” (Epigenica AB, priority 2020, published 2024)

How the values were obtained:
H3K27me3 in U2OS cells = assay: hmqChIP quantification of global H3K27me3 level after drug treatment, U2OS; type: cell-based, human; conditions: 0.5 uM/5 uM, 40 h, anti-H3K27me3 ChIP
Experimental: (§1) A highly multiplexed experiment profiling global levels of three histone modifications in 96 samples: Two different cancer cell lines (human colon cancer HCT116, human osteosarcoma U2OS) were treated with 11 different drugs at 2 concentrations each (low, high) or DMSO as a control. Two replicates each (rep1, rep2) were performed of each treatment, totaling 96 samples. For U2OS, 9000 cells were seeded per 96-well, For HCT116, 6000 cells were seeded. After 24 h, drugs were added to each well, using the concentration specified in the following table:
(§2) After further growth for 40 h, the cell number was approx. 50 000 cells per well. […]
(§3) The final libraries were sequenced twice, to test the influence of sequencing two different random set of molecules on the quantification of global levels (that only scarcely covering the genome). The first time ˜1 Mio reads were sequenced in total for the four sub-pools (3 ChIP, 1 input), approximately 250 000 per sub-pool. […] The second time at total of 25 Mio reads were collected and either all of the reads were analyzed, or only a randomly selected subset of 1 mio reads. When all reads were analyzed, it corresponds to approx. 260,416 reads per sample. Input-normalized unique read count (INRCs) using DMSO controls as reference were calculated as described in Example 2 and plotted in a heatmap with grayscale and circle size reflecting the INRC.

H3K27ac = assay: hmqChIP quantification of global H3K27ac level after drug treatment; type: cell-based, human; conditions: HCT116 and U2OS cells, 0.5 uM/5 uM, 40 h, anti-H3K27ac ChIP
Experimental: as §1, §2, §3

H3K27me3 in HCT116 cells = assay: hmqChIP quantification of global H3K27me3 level after drug treatment, HCT116; type: cell-based, human; conditions: 0.5 uM/5 uM, 40 h, anti-H3K27me3 ChIP
Experimental: as §1, §2, §3

[1] = system: H3K27me3 in mouse embryonic stem cells; conditions: dataset according to Kumar and Elsässer 2019; cited from earlier work

CC(NC(=O)c1ccccc1/N=C/c1c(O)ccc2ccccc12)c1ccccc1 (centres unmarked) [Sirtinol]
global H3K27me3 level (INRC relative to DMSO control) (H3K27me3 in U2OS cells): decreases H3K27me3 | global H3K27ac level (INRC relative to DMSO control) (H3K27ac): increase H3K27ac acetylation

CCN(c1cc(C#CCN2CCOCC2)cc(C(=O)NCc2c(C)cc(C)[nH]c2=O)c1C)[C@H]1CC[C@H](N(C)CCOC)CC1 [EPZ011989]
global H3K27me3 level (INRC relative to DMSO control) (H3K27me3 in HCT116 cells): decrease H3K27me3

CCOC(=O)CCNc1cc(N2CCc3ccccc3CC2)nc(-c2ccccn2)n1 [GSK-J4]
H3K27me3 level of treated mESC used as calibration cell source [1]: increase H3K27me3 above physiologic levels

O=C(CCCCCCC(=O)Nc1ccccc1)NO [SAHA]
global H3K27ac level (INRC relative to DMSO control) (H3K27ac): increase H3K27ac acetylation
